The results in this text go back to US20240368163A1, “COMPOUNDS AND METHODS FOR MODULATING SPLICING” (REMIX THERAPEUTICS INC., priority 2021, published 2024).

What all share (assay type): cell-based, human
The test system of assay [1] is MYB. Put plainly: HiBiT protein abundance assay, MYB. To be noted: Homo sapiens, K562, 24 h, Table 13A, modified K562 cells. An outline of the steps:
(§1)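 Target abundance was measured as HiBiT luminescence after 24 h compound treatment of tagged K562 cells. Responses were normalized between unmodified K562 and DMSO-treated tagged cells, and IC50 taken at the 50% level of a 4PL curve.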

Assay [2] relates to HTT. The assay is described as follows: Splicing RT-qPCR assay, HTT mRNA canonical junction (CJ) and alternative junction (AJ). As to conditions: Homo sapiens; for AC50: increase in AJ mRNA. The method in brief:
(§2)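 Cells: A673 (DMEM/10% FBS) or K562 (IMDM/10% FBS). Dose: 11-pt 3-fold, top 10 uM final, ≤0.25% DMSO, 24 h, 37 °C. Readout: RT-qPCR of CJ/AJ exon junctions, ΔΔCt vs housekeeper and DMSO, RQ to % response.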

The subject of assay [3] is Target C. The assay is described as follows: Splicing RT-qPCR panel, Target C canonical junction (CJ) mRNA. To be noted: Homo sapiens, RT-qPCR panel, canonical junction mRNA; compound concentration having 50% response in CJ decrease; read-out: Target C IC50 (decrease in CJ mRNA levels). An outline of the steps: as §2
Assay [4] deals with HTT. The assay is described as follows: HiBiT protein abundance assay, HTT. As to conditions: Homo sapiens, K562, 24 h, Table 13A, modified K562 cells. An outline of the steps:
as §1
(In general: With HiBiT, luminescence reflects the tagged protein that the partner subunit can reach.)

The test system of assay [5] is SMN2. The assay is described as follows: Splicing RT-qPCR panel, SMN2 canonical junction (CJ) mRNA. As to conditions: Homo sapiens, RT-qPCR panel, canonical junction mRNA; compound concentration having 50% response in CJ decrease; read-out: SMN2 IC50 (decrease in CJ mRNA levels). An outline of the steps: as §2
On the technique in general: Quantitative PCR measures a nucleic acid by following its amplification.

Assay [6] deals with Target C. Put plainly: HiBiT protein abundance assay, Target C. To be noted: Homo sapiens, K562, 24 h, Table 13A, modified K562 cells. The method in brief:
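Cells carrying the HiBiT knock-in were plated at 10000 cells/well, dosed with compound (10-point, 3-fold, 10 μM top final) and incubated 24 hours at 37 °C. Lytic reagent was then added and luminescence read. Percent response fed a 4PL fit for IC50.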

For assay [7], the system named is MYB. Put plainly: Splicing RT-qPCR assay, MYB mRNA canonical junction (CJ) and alternative junction (AJ). As to conditions: Homo sapiens; for AC50: increase in AJ mRNA. The method in brief: as §2
Setting [8] is: 24 h, decrease in CJ mRNA, A673 or K562 cells, 24 hours treatment, RT-qPCR, read-out: HTT CJ IC50.
[9] abbreviates: 24 h, A673 or K562 cells, 24 hours treatment, RT-qPCR.
[10] abbreviates: RT-qPCR panel, canonical junction mRNA, compound concentration having 50% response in CJ decrease, read-out: HTT IC50 (decrease in CJ mRNA levels).
The mark [11] stands for this setting: 24 h, decrease in CJ mRNA, A673 or K562 cells, 24 hours treatment, RT-qPCR, read-out: MYB CJ IC50.
Setting [12] is: RT-qPCR panel, canonical junction mRNA, compound concentration having 50% response in CJ decrease, read-out: MYB IC50 (decrease in CJ mRNA levels).

By IC50 is commonly meant the concentration that inhibits the measured activity by half. In general, AC50 refers to the midpoint of the concentration-response curve, whichever way the signal moves. Regarding `CN(C)[C@H]1[C@@H]2CN(c3ccc(-c4ccc(-c5cn[nH]c5)c5cn[nH]c45)nn3)C[C@@H]21` [Compound 303], the IC50 is 1000 to 10000 nM in assay [1]; above 10000 nM in assay [2] (setting [8]); above 10000 nM in assay [2] (setting [10]); above 10000 nM in assay [3]; 1000 to 10000 nM in assay [4]; 1000 to 10000 nM in assay [5]. Moreover, the IC50 is 1000 to 10000 nM in assay [6], above 10000 nM in assay [7] (setting [11]) and above 10000 nM in assay [7] (setting [12]). For the same compound, the AC50 in assay [2] (setting [9]) and in assay [7] (setting [9]) was above 10000 nM each time.
Regarding `c1n[nH]cc1-c1ccc(-c2ccc(N3CC[C@@]45CCN[C@@H]4CC[C@@H]35)nn2)c2[nH]ncc12` [Compound 304], the half-inhibitory concentration (IC50) in assay [1] was 1000 to 10000 nM; in assay [2] (setting [8]), above 10000 nM; in assay [2] (setting [10]) it was above 10000 nM; in assay [3] it was above 10000 nM; in assay [4], 1000 to 10000 nM; in assay [5], 1000 to 10000 nM. Besides, the IC50 in assay [6], in assay [7] (setting [11]) and in assay [7] (setting [12]) was above 10000 nM each time. The AC50 in assay [2] (setting [9]) and in assay [7] (setting [9]) was above 10000 nM in each case.
Take `CC(C)(C)NC1CCN(c2ccc(-c3ccc(-c4cn[nH]c4)c4cn[nH]c34)nn2)C1` (stereo not shown) [Compound 305]: the half-maximal inhibitory concentration (IC50) in assay [1] was 100 to 1000 nM; in assay [2] (setting [8]) it was 100 to 1000 nM; in assay [2] (setting [10]), 100 to 1000 nM; in assay [3], 1000 to 10000 nM; in assay [4], 100 to 1000 nM; in assay [5], below 100 nM. Moreover, the IC50 in assay [6], in assay [7] (setting [11]) and in assay [7] (setting [12]) was 1000 to 10000 nM throughout. In addition, the AC50 in assay [2] (setting [9]) lay within 100 to 1000 nM; in assay [7] (setting [9]), 1000 to 10000 nM.
As for `c1n[nH]cc1-c1ccc(-c2ccc(N3CCC(NC4CC4)C3)nn2)c2[nH]ncc12` (stereo not shown) [Compound 306], the IC50 in assay [1] is 1000 to 10000 nM; in assay [2] (setting [8]), above 10000 nM; in assay [2] (setting [10]), above 10000 nM; in assay [3], above 10000 nM; in assay [4], 1000 to 10000 nM; in assay [5] it was 100 to 1000 nM. Besides, the IC50 in assay [6], in assay [7] (setting [11]) and in assay [7] (setting [12]) was above 10000 nM each time. Also, the AC50 was 1000 to 10000 nM in assay [2] (setting [9]) and above 10000 nM in assay [7] (setting [9]).
With `CC(C)(C)NC1CCN(c2ccc(-c3ccc(-n4cccn4)c4cn[nH]c34)nn2)C1` (stereo not shown) [Compound 310], the IC50 in assay [1] is 1000 to 10000 nM; in assay [2] (setting [8]), 1000 to 10000 nM; in assay [2] (setting [10]), 1000 to 10000 nM; in assay [3], above 10000 nM; in assay [4], 1000 to 10000 nM; in assay [5], 100 to 1000 nM. For the same compound, the IC50 in assay [6], in assay [7] (setting [11]) and in assay [7] (setting [12]) was 1000 to 10000 nM each time. Further, the AC50 was 1000 to 10000 nM in assay [2] (setting [9]) and above 10000 nM in assay [7] (setting [9]).
Turning to `CN(c1ccc(-c2ccc(-c3cnn(C4CC4)n3)c3cn[nH]c23)nn1)[C@@H]1C[C@H]2CC[C@@H](C1)N2` [Compound 312, (1R,3s,5S)-N-(6-(4-(2-cyclopropyl-2H-1,2,3-triazol-4-yl)-1H-indazol-7-yl)pyridazin-3-yl)-N-methyl-8-azabicyclo[3.2.1]octan-3-amine], the IC50 in assay [1] fell in the range of 100 to 1000 nM; in assay [2] (setting [8]) it was 1000 to 10000 nM; in assay [2] (setting [10]), 1000 to 10000 nM; in assay [3] it was 1000 to 10000 nM; in assay [4], 100 to 1000 nM; in assay [5] it was 100 to 1000 nM. Also, the IC50 in assay [6], in assay [7] (setting [11]) and in assay [7] (setting [12]) was 1000 to 10000 nM throughout. For the same compound, the AC50 in assay [2] (setting [9]) was 1000 to 10000 nM; in assay [7] (setting [9]), 100 to 1000 nM.
On to `CN(c1ccc(-c2ccc(-c3cnn(C)n3)c3cn[nH]c23)nn1)C1CCNCC1` [Compound 315, N-methyl-6-[4-(2-methyl-1,2,3-triazol-4-yl)-1H-indazol-7-yl]-N-(piperidin-4-yl)pyridazin-3-amine], for which the IC50 in assay [1] is 100 to 1000 nM; in assay [2] (setting [8]), 1000 to 10000 nM; in assay [2] (setting [10]) it was 1000 to 10000 nM; in assay [3] it was above 10000 nM; in assay [4], 100 to 1000 nM; in assay [5], 100 to 1000 nM. For the same compound, the IC50 is above 10000 nM in assay [6], 1000 to 10000 nM in assay [7] (setting [11]) and 1000 to 10000 nM in assay [7] (setting [12]). Also, the AC50 in assay [2] (setting [9]) and in assay [7] (setting [9]) was 1000 to 10000 nM in each case.
With `Cn1ncc(-c2ccc(-c3ccc(OC4CC(C)(C)NC(C)(C)C4)nn3)c3[nH]ncc23)n1` [Compound 316], the IC50 in assay [1] is 100 to 1000 nM; in assay [2] (setting [8]), 100 to 1000 nM; in assay [2] (setting [10]) it was 100 to 1000 nM; in assay [3], 1000 to 10000 nM; in assay [4] it was 100 to 1000 nM; in assay [5], below 100 nM. For the same compound, the IC50 in assay [6], in assay [7] (setting [11]) and in assay [7] (setting [12]) was 100 to 1000 nM each time. Moreover, the AC50 in assay [2] (setting [9]) and in assay [7] (setting [9]) was 100 to 1000 nM in each case.
Consider `CCn1ncc(-c2ccc(-c3ccc(N(C)[C@@H]4C[C@H]5CC[C@@H](C4)N5)nn3)c3[nH]ncc23)n1` [Compound 317, N-{6-[4-(2-ethyl-1,2,3-triazol-4-yl)-1H-indazol-7-yl]pyridazin-3-yl}-N-methyl-8-azabicyclo[3.2.1]octan-3-amine], for which the IC50 in assay [1] lay in the range of 100 to 1000 nM; in assay [2] (setting [8]), 100 to 1000 nM; in assay [2] (setting [10]), 100 to 1000 nM; in assay [3] it was 1000 to 10000 nM; in assay [4] it was 100 to 1000 nM; in assay [5], 1000 to 10000 nM. For the same compound, the IC50 in assay [6], in assay [7] (setting [11]) and in assay [7] (setting [12]) was 100 to 1000 nM throughout. In addition, the AC50 in assay [2] (setting [9]) and in assay [7] (setting [9]) was 100 to 1000 nM throughout.
In the case of `CN(c1ccc(-c2ccc(-c3cnn(CC4CC4)n3)c3cn[nH]c23)nn1)[C@@H]1C[C@H]2CC[C@@H](C1)N2` [Compound 318, N-(6-{4-[2-(cyclopropylmethyl)-1,2,3-triazol-4-yl]-1H-indazol-7-yl}pyridazin-3-yl)-N-methyl-8-azabicyclo[3.2.1]octan-3-amine], the concentration for half-maximal inhibition (IC50) in assay [1], in assay [2] (setting [8]), in assay [2] (setting [10]), in assay [3], in assay [4] and in assay [5] was 1000 to 10000 nM throughout. Further, the IC50 in assay [6], in assay [7] (setting [11]) and in assay [7] (setting [12]) was 1000 to 10000 nM in each case. Besides, the AC50 in assay [2] (setting [9]) and in assay [7] (setting [9]) was 1000 to 10000 nM in each case.
Take `Cn1cc(-c2c(F)cc(-c3ccc(OC4CC(C)(C)NC(C)(C)C4)nn3)c3[nH]ncc23)cn1` [Compound 319, 5-fluoro-4-(1-methylpyrazol-4-yl)-7-{6-[(2,2,6,6-tetramethylpiperidin-4-yl)oxy]pyridazin-3-yl}-1H-indazole]: the concentration for half-maximal inhibition (IC50) in assay [1] is 100 to 1000 nM; in assay [2] (setting [8]), 100 to 1000 nM; in assay [2] (setting [10]), 100 to 1000 nM; in assay [3], 1000 to 10000 nM; in assay [4], 100 to 1000 nM; in assay [5] it was below 100 nM. Also, the IC50 in assay [6] lay within 1000 to 10000 nM; in assay [7] (setting [11]) it was 100 to 1000 nM; in assay [7] (setting [12]), 100 to 1000 nM. For the same compound, the AC50 was in the range of 100 to 1000 nM in assay [2] (setting [9]) and 1000 to 10000 nM in assay [7] (setting [9]).
